# Values quoted from earlier work in patent US9750827B2, “Near-infrared dye-conjugated hyaluronic acid derivative and contrast agent for optical imaging including them” (CANON KABUSHIKI KAISHA, priority 2013, dated 2017).
# Conditions: known in the art
smiles,measurement,value
"CC1(C)C(/C=C/C=C/C=C/C=C2/N(CCCCS(=O)(=O)[O-])c3ccc4ccccc4c3C2(C)C)=[N+](CCCCS(=O)(=O)[O-])c2ccc3ccccc3c21.[Na+] [ICG, indocyanine green]",half-life in blood,about several minutes
